ChEMBL document CHEMBL1201862, “PubChem BioAssay data set” (2004)
The source made the active and inactive calls.

Columns and labels:
[1] = biological target: T1, Voltage-gated N-type calcium channel alpha-1B subunit/Amyloid beta A4 precursor protein-binding family A member 1 (Homo sapiens, UniProt Q00975+Q02410); assay type: protein assay
Insulin-degrading enzyme = biological target: T2, Insulin-degrading enzyme (Homo sapiens, UniProt P14735); test: cellular IDE activation of Abeta substrate cleavage – fluorescence polarization, HEK cells, dose response (AID 588439); assay type: functional, cell-based
T2 sequence (P14735 whole entry): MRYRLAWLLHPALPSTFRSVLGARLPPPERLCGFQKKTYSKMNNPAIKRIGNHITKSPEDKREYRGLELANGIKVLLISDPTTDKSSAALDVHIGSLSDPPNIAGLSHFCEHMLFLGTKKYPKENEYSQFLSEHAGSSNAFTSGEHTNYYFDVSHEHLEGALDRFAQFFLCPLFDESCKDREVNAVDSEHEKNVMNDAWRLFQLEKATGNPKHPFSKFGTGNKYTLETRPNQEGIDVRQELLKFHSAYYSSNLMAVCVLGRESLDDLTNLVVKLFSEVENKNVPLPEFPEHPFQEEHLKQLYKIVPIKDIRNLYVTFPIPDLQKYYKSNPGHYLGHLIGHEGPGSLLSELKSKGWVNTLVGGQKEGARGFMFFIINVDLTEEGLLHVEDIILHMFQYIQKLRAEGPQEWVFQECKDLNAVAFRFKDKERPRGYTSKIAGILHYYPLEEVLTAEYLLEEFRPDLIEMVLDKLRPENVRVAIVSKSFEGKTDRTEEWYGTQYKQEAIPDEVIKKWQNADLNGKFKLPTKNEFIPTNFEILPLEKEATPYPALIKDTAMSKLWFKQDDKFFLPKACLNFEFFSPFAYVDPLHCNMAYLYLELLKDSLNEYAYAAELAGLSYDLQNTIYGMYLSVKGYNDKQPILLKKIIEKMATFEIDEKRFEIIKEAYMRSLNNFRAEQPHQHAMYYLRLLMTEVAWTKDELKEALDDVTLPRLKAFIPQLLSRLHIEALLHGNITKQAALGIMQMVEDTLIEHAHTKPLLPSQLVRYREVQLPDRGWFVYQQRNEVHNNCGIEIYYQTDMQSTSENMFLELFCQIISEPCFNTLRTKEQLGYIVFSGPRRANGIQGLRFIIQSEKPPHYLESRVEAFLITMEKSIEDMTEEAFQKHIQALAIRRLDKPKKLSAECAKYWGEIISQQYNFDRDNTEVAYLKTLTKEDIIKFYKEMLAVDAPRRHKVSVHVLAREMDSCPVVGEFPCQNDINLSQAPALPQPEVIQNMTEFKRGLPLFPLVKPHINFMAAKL

[2] = biological target: T1, Voltage-gated N-type calcium channel alpha-1B subunit/Amyloid beta A4 precursor protein-binding family A member 1; assay type: protein assay; remark: listed apart in the source
[3] = biological target: Ras and Rab interactor 1/Tyrosine-protein kinase ABL1 (Homo sapiens, UniProt P00519+Q13671); assay type: functional;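 also: biochemical TR-FRET dose-response test measuring inhibition of binding between Rin1 and Abl proteins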
[4] = biological target: Mothers against decapentaplegic homolog 3 (Homo sapiens, UniProt P84022); test: inhibitors of SMAD-driven TGF-beta signaling – dose response (AID 715); assay type: functional
[5] = biological target: T3, Sentrin-specific protease 7 (Homo sapiens, UniProt Q9BQF6); assay type: functional;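 also: Luminescence-based dose-response confirmation of ultra-high-throughput screening hits, measuring inhibition of SENP7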
T3 sequence (Q9BQF6 whole entry): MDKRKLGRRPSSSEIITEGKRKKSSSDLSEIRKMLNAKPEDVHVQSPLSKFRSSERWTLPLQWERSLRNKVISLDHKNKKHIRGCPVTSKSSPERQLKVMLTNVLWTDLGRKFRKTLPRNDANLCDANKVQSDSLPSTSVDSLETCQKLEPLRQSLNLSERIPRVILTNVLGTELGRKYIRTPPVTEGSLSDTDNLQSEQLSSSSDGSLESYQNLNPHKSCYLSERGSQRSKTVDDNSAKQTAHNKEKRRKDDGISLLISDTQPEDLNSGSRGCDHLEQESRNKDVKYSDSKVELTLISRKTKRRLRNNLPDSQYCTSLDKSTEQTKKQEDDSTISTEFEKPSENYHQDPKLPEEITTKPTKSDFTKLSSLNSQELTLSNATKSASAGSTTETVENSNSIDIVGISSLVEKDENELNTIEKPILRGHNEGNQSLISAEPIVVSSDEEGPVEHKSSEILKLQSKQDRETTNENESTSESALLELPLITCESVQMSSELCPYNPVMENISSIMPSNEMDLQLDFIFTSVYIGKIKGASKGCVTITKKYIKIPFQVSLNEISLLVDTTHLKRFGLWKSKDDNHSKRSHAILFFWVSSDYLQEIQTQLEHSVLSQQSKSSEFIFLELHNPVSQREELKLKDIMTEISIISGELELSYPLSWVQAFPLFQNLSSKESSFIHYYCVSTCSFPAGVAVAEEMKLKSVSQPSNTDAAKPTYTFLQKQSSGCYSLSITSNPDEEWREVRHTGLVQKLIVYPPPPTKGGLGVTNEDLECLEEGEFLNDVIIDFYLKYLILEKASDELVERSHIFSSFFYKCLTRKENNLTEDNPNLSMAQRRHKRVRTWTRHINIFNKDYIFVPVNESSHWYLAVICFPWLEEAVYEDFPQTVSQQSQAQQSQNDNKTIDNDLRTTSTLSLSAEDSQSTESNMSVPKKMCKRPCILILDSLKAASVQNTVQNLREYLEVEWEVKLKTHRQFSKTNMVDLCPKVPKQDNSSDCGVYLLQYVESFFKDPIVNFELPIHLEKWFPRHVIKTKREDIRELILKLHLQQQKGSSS

Phospholipase A2 = Phospholipase A2 (Homo sapiens, UniProt P04054); assay type: functional;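 also: confirmatory dose-response counterscreen on phospholipase A2, testing hits that came from an ultra-high-throughput screen for ATG4B inhibitors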
[6] = biological target: Serine/threonine-protein phosphatase (Homo sapiens, UniProt Q9BPW0); test: inhibition of protein phosphatase 5 activity – biochemical, fluorescence, dose response (AID 2395)
INS1 = test: INS-1E survival protection against cytokine death – cell-based, luminescence, retest, dose response (AID 449756); assay type: functional; details: Rattus norvegicus;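 also: cell death triggered by IL-1 beta plus TNF-alpha plus IFN-gamma mixture; protective hits raise ATP signal compared with cytokine alone wells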
[7] = biological target: Delta-type opioid receptor (Homo sapiens, UniProt P41143); test: Counterscreen for agonists of heterodimerization of the mu 1 (OPRM1) and delta 1 (OPRD1) opioid receptors: Luminescence-based cell-based high throughput dose response assay to identify agonists of OPRD1 homodimerization. [Related pubchem assays (depositor defined):AID504326, AID504355, AID504692, AID504904, AID504905]; assay type: functional
CAAX prenyl protease 2 = biological target: T4, CAAX prenyl protease 2 (Saccharomyces cerevisiae S288c, UniProt Q03530); assay type: biochemical
T4 sequence (Q03530 whole entry): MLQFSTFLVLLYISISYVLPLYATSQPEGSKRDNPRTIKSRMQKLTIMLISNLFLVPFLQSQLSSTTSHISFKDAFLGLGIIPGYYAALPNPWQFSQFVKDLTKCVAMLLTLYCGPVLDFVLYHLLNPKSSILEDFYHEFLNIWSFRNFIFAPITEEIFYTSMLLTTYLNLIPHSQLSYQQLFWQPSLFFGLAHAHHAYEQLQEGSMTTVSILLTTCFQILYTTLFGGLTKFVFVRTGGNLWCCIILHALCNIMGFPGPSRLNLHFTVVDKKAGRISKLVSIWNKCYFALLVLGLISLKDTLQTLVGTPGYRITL

T1 sequence (Q00975 whole entry): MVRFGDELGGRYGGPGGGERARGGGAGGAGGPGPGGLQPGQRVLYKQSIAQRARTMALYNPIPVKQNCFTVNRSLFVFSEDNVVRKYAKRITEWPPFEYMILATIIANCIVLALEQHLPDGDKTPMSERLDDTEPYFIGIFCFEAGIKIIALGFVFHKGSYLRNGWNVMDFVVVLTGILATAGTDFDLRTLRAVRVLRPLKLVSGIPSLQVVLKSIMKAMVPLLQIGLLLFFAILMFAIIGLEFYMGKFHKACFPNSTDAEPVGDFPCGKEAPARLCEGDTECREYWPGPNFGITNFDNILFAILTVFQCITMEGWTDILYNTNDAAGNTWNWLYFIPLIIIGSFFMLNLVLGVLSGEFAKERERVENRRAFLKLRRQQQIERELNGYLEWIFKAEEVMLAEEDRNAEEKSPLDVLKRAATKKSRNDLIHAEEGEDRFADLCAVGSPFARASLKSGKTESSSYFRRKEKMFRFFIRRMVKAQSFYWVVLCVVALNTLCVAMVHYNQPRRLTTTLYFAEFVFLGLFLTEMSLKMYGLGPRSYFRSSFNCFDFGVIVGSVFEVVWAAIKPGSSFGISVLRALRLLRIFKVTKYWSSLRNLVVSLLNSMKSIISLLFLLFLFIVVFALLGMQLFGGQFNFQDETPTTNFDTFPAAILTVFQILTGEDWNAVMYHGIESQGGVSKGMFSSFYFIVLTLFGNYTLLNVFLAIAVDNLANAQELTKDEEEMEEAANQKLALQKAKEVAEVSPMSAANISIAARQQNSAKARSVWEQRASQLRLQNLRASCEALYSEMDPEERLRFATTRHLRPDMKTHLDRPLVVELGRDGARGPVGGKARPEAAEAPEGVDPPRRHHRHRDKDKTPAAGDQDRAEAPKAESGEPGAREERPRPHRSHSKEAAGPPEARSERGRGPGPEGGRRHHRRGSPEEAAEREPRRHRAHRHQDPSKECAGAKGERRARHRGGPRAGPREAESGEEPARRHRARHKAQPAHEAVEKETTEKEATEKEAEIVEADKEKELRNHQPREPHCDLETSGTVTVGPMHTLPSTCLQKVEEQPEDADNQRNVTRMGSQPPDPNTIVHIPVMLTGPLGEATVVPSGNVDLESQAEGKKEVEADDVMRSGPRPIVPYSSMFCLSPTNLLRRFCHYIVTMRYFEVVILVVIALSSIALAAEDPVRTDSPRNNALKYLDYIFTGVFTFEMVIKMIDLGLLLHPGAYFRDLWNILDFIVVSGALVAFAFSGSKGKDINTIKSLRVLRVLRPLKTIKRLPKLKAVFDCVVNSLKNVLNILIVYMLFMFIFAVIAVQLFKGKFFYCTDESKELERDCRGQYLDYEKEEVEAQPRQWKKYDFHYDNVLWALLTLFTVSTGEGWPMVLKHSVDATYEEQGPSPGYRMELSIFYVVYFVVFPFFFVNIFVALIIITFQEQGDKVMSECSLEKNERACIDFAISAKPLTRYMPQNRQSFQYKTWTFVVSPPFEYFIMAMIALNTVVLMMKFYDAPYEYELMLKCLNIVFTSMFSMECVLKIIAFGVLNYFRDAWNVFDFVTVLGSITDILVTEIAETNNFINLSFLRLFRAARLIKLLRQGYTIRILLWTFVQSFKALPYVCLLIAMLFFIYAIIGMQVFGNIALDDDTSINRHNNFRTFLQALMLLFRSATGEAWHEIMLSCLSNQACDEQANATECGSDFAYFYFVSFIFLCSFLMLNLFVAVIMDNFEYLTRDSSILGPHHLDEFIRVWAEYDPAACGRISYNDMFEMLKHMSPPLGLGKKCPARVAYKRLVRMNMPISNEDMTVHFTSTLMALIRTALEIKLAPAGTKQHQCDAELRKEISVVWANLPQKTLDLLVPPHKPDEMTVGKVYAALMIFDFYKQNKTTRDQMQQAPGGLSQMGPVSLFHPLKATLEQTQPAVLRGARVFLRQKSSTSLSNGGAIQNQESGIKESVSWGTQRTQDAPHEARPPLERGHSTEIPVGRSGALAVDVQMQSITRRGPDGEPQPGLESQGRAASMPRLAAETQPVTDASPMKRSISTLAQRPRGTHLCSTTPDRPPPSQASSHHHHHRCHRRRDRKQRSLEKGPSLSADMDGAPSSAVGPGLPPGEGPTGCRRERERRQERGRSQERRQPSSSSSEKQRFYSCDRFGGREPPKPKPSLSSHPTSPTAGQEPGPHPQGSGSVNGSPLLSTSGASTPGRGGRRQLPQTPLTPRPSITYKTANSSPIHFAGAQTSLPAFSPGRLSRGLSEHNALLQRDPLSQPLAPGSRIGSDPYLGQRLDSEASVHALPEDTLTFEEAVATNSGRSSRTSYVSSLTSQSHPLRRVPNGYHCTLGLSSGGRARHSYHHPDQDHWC
T1 sequence (Q02410 whole entry): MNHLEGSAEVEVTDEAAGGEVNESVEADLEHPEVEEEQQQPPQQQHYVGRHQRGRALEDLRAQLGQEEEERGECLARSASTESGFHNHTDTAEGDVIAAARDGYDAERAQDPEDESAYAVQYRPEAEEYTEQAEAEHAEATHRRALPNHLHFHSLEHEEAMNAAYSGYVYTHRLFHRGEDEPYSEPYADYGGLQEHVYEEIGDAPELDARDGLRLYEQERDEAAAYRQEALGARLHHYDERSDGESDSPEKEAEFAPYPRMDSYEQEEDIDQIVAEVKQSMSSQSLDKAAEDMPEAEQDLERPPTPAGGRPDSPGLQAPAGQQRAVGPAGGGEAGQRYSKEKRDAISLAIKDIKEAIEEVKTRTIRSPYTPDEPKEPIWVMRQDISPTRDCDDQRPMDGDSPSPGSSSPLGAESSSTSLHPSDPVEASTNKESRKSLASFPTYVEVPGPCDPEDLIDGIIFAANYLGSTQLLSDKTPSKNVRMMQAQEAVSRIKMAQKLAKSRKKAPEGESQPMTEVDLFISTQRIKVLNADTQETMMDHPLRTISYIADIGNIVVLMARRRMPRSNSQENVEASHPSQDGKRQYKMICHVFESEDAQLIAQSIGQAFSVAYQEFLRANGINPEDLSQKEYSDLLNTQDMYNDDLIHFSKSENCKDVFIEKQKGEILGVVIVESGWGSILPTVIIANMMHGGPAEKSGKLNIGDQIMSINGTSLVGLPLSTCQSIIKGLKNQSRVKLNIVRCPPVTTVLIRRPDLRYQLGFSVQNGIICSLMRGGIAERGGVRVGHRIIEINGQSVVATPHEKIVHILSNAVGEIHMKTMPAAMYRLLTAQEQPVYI
Delta-type opioid receptor, sequence (P41143 whole entry): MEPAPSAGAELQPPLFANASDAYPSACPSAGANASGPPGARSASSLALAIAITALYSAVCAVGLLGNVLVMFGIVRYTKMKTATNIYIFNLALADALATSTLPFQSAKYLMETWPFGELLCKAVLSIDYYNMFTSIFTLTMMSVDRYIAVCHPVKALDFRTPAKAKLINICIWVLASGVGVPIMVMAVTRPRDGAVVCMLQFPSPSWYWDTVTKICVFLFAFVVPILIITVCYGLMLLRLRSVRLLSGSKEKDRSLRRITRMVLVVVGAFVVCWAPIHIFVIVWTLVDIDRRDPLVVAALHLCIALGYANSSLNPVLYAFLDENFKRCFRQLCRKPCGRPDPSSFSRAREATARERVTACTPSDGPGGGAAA
Serine/threonine-protein phosphatase, sequence (Q9BPW0 whole entry): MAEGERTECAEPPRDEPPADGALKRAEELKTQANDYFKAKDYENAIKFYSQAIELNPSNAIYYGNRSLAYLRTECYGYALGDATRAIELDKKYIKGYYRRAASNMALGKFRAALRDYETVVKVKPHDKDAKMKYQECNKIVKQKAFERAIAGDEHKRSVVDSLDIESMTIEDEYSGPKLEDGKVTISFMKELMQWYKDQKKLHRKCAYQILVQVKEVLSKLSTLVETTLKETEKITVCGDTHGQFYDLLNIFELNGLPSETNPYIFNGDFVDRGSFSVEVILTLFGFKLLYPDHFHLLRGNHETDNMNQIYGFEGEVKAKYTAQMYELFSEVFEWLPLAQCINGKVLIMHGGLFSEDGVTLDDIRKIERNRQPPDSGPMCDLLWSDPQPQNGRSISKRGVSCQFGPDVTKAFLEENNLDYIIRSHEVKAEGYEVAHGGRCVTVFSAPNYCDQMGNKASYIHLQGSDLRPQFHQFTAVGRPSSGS
Phospholipase A2, sequence (P04054 whole entry): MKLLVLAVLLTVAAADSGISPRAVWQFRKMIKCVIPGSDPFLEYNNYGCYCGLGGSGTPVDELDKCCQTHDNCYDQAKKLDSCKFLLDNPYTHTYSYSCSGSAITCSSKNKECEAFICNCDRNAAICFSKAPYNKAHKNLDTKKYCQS
Mothers against decapentaplegic homolog 3, sequence (P84022 whole entry): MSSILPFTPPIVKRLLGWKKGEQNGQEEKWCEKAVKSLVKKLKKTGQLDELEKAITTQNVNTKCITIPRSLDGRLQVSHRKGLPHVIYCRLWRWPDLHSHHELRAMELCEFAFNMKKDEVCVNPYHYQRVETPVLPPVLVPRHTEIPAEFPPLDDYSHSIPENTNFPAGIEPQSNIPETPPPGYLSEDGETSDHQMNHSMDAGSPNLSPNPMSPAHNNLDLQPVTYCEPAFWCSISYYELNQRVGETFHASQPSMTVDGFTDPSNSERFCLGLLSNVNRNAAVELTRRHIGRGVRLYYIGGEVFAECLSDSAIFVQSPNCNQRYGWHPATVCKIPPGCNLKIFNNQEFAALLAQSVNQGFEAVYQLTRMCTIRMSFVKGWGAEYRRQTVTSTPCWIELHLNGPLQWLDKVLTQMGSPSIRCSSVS

## COc1cc(OC)c(-c2c3cc(O)c(=O)cc-3oc3cc(O)c(O)cc23)cc1OC
[1]
  IC50: 12.5 µM (active)
Insulin-degrading enzyme
  EC50: > 54.7 µM (inactive)
[2]
  IC50: > 50 µM (inactive)
[3]
  IC50: 0.724 µM (active)

## Oc1nc(Nc2ccccc2)cc2ccccc12
[4]
  IC50: 19.6 µM (active)
[5]
  IC50: 0.75 µM (active)
Phospholipase A2
  IC50: > 80 µM (inactive)
[6]
  IC50: 31.6 µM (not active)

## CCCCCCCCCCOC(=O)C[n+]1c(COc2ccccc2C)n(C)c2ccccc21
INS1
  AC50: 2.16 µM (active)
[7]
  EC50: > 92.5 µM (inactive)
CAAX prenyl protease 2
  AC50: 8.72 µM (active)
